In ChEMBL document CHEMBL5465560, “Selectivity Literature for EUbOPEN Chemogenomic Library” (2024):

Key:
[1] = biological target: T1, Activin receptor type-1 (Homo sapiens) (UniProt Q04771); assay: Selectivity interaction (ProQinase) EUB0000171b ACVR1
T1 sequence (whole entry): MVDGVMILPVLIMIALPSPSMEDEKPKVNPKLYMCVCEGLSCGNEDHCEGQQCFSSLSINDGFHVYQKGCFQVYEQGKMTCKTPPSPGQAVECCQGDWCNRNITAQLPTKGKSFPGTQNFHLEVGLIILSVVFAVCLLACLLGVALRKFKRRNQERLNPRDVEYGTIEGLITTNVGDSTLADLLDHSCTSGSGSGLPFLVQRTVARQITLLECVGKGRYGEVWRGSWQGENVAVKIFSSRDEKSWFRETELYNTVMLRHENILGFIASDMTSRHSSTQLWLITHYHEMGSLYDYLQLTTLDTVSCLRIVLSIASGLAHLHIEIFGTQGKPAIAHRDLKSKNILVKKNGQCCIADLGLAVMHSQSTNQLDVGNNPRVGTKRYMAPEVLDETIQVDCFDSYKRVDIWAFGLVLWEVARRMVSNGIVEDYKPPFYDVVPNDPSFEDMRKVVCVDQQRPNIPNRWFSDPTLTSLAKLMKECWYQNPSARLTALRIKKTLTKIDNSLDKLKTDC

[2] = Selectivity interaction (KinomeScan (DiscoverX)) EUB0000666a PKNB; settings: at 10 µM
[3] = biological target: Tyrosine-protein kinase SYK (Homo sapiens, UniProt P43405); settings: at 10 µM
[4] = tested on: Tyrosine-protein kinase ABL1 (Homo sapiens), P00519 [F317L]; settings: at 10 µM
[5] = biological target: Receptor tyrosine-protein kinase erbB-4 (Homo sapiens, UniProt Q15303); assay: Selectivity interaction (Kinase panel (Z-LYTE Assay)) EUB0001632a ERBB4; settings: at 10 µM
Sequence of Receptor tyrosine-protein kinase erbB-4 (Q15303 whole entry): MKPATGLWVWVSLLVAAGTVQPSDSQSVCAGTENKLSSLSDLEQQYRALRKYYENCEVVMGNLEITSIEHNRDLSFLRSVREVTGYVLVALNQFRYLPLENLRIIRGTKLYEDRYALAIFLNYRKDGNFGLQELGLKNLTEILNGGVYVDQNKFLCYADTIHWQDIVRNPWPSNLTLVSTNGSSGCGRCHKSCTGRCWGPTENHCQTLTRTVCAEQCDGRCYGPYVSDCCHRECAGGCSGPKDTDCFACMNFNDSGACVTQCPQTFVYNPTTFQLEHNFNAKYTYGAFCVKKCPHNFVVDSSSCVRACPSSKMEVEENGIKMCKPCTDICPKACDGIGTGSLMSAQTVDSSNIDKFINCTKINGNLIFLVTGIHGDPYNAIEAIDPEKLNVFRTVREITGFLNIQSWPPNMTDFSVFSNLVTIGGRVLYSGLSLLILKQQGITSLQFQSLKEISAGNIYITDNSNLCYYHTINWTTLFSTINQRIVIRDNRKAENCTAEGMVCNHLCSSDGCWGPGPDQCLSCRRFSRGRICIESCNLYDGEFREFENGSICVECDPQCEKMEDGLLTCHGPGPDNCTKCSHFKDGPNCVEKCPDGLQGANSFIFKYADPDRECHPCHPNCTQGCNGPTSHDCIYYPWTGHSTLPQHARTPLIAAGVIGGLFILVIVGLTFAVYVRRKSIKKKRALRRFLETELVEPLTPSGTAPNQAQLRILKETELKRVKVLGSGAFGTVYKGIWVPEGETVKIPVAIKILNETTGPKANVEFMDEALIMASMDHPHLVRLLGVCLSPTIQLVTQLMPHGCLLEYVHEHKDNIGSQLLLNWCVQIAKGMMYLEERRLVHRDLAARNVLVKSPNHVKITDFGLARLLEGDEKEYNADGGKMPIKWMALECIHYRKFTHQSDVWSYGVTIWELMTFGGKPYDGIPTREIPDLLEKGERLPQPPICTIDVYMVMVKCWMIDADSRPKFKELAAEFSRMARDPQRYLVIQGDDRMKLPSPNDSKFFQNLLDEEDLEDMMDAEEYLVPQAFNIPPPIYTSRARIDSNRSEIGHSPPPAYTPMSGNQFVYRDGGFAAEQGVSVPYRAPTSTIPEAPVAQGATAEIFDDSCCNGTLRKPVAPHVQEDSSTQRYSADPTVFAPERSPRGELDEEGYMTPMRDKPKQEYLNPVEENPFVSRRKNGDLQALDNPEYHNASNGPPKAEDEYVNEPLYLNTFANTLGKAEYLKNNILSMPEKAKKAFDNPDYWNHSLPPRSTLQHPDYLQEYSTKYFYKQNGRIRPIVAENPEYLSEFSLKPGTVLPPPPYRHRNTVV

[6] = biological target: T2, Serine/threonine-protein kinase RIO1 (Homo sapiens) (UniProt Q9BRS2); assay: Selectivity interaction (KinomeScan (DiscoverX)) EUB0001049a RIOK1; settings: at 1 µM
T2 sequence (whole entry): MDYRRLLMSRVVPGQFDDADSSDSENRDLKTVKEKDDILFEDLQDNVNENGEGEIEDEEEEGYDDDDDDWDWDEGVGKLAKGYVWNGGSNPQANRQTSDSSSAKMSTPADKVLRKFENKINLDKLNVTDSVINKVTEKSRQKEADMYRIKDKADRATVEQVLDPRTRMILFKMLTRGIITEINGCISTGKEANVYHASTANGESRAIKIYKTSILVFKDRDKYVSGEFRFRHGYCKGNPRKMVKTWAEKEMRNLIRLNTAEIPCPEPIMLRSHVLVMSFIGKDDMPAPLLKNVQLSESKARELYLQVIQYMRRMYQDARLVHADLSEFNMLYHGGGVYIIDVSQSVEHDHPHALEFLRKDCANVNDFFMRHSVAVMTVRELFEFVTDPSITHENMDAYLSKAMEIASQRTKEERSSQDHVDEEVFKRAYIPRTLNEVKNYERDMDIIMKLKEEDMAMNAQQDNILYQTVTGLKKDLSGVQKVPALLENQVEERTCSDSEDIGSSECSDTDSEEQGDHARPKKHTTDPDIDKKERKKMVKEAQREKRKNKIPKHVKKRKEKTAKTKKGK

[7] = biological target: RAF proto-oncogene serine/threonine-protein kinase (Homo sapiens) (UniProt P04049); assay: Selectivity interaction (KinomeScan (DiscoverX)) EUB0000695a RAF1; settings: at 100 nM
Sequence of RAF proto-oncogene serine/threonine-protein kinase (Homo sapiens) (P04049 whole entry): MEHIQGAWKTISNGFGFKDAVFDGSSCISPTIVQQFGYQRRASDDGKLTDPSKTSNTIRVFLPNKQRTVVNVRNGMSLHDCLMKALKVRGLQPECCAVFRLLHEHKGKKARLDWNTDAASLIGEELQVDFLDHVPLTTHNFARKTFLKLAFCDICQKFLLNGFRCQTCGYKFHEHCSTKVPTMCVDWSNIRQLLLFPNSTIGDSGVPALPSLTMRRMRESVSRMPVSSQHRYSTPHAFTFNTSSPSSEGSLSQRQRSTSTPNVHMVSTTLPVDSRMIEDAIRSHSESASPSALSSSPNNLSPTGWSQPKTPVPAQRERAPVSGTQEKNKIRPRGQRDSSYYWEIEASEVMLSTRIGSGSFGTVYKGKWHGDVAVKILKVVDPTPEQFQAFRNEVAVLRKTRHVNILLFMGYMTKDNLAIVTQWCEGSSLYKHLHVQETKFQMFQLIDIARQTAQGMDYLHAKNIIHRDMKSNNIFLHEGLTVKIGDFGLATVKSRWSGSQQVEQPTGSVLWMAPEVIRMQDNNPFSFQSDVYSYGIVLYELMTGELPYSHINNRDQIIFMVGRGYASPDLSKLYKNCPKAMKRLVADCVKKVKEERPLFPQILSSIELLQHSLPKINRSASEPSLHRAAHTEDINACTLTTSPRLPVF

[8] = biological target: Mitogen-activated protein kinase kinase kinase 9 (Homo sapiens) (UniProt P80192); assay: Selectivity interaction (KinomeScan (DiscoverX)) EUB0000045b MAP3K9
Sequence of Mitogen-activated protein kinase kinase kinase 9 (Homo sapiens) (P80192 whole entry, looked up): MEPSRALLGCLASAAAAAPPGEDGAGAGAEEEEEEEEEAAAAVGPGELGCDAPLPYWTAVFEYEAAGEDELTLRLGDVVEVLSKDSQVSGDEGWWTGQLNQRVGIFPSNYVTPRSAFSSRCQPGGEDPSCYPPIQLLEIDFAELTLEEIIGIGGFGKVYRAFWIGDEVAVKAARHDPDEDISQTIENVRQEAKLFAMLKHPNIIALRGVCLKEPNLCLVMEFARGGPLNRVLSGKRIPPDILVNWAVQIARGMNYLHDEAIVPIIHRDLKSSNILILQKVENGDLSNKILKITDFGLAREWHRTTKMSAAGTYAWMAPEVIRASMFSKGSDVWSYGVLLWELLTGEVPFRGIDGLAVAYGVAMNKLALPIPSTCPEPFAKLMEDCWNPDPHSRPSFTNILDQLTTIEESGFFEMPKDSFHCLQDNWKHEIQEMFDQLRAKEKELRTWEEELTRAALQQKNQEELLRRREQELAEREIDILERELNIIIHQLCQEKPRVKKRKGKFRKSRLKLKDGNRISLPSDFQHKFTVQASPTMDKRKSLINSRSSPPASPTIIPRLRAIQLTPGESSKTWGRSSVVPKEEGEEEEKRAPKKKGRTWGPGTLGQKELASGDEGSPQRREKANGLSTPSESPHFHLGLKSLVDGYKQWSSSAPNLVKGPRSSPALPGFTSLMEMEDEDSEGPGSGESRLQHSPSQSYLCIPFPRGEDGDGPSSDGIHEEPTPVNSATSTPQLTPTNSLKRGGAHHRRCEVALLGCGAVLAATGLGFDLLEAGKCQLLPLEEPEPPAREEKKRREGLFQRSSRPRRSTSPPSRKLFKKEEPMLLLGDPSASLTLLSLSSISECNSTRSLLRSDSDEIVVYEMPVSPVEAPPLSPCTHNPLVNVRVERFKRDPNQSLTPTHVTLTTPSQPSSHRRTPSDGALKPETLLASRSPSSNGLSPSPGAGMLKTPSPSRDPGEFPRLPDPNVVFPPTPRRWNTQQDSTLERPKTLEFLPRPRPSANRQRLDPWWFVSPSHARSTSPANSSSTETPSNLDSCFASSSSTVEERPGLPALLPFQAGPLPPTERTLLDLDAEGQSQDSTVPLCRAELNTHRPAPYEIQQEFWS

[9] = biological target: RAC-gamma serine/threonine-protein kinase (Homo sapiens, UniProt Q9Y243); assay: Selectivity interaction (KinomeScan (DiscoverX)) EUB0000618a AKT3; settings: at 10 µM
Sequence of RAC-gamma serine/threonine-protein kinase (Q9Y243 whole entry): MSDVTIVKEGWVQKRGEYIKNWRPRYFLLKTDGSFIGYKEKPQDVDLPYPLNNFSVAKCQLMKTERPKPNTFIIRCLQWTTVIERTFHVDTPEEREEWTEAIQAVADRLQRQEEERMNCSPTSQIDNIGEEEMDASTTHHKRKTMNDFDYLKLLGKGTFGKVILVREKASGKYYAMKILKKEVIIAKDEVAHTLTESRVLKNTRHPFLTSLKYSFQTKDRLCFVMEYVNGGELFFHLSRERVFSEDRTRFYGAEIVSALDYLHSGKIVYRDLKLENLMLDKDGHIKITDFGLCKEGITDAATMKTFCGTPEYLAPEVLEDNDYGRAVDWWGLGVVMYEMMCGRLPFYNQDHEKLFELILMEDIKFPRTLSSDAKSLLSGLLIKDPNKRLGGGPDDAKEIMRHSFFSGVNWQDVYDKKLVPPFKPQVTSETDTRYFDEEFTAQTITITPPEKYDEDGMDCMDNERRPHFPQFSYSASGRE

[10] = biological target: T3, Inhibitor of nuclear factor kappa-B kinase subunit beta (Homo sapiens) (UniProt O14920)
T3 sequence (whole entry): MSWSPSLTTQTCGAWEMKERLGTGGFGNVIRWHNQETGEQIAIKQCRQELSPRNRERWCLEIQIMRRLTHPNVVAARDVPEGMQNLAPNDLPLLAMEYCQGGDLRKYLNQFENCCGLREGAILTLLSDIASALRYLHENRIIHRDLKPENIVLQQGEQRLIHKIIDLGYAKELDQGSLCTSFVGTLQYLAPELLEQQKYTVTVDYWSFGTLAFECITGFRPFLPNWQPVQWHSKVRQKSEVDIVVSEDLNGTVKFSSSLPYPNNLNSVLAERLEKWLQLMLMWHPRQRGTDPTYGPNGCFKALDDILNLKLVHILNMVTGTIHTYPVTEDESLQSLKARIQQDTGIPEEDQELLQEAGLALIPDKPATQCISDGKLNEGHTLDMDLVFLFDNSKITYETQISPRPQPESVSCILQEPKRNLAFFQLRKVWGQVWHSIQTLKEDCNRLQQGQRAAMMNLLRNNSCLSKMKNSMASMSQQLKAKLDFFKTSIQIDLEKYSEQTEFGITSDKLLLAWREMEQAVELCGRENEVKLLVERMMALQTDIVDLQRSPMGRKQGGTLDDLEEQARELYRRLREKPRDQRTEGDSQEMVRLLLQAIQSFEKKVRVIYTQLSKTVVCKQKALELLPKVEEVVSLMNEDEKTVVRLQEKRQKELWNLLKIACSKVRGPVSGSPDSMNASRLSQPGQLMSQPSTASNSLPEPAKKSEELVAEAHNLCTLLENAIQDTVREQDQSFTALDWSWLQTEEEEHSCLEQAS

[11] = biological target: T4, N-lysine methyltransferase KMT5A (Homo sapiens) (UniProt Q9NQR1); settings: at 1 µM
T4 sequence (whole entry): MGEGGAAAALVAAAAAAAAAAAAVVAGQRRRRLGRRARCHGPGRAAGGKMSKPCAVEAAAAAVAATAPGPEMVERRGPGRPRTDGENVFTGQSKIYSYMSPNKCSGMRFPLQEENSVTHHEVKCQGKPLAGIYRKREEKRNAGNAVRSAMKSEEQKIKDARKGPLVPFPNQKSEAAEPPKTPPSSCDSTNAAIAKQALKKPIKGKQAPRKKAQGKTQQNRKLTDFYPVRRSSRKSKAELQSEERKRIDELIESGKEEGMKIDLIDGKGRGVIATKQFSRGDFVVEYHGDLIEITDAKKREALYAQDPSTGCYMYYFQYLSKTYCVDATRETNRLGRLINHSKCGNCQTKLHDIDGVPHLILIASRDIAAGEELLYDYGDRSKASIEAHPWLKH

[12] = biological target: Tyrosine-protein kinase receptor Tie-1 (Homo sapiens) (UniProt P35590); assay: Selectivity interaction (KinomeScan (DiscoverX)) EUB0001619a TIE1; settings: at 1 µM
[13] = biological target: Serine/threonine-protein kinase 33 (Homo sapiens) (UniProt Q9BYT3); assay: Selectivity interaction (KinomeScan (DiscoverX)) EUB0001619a STK33; settings: at 1 µM
Sequence of Serine/threonine-protein kinase 33 (Homo sapiens) (Q9BYT3 whole entry, looked up): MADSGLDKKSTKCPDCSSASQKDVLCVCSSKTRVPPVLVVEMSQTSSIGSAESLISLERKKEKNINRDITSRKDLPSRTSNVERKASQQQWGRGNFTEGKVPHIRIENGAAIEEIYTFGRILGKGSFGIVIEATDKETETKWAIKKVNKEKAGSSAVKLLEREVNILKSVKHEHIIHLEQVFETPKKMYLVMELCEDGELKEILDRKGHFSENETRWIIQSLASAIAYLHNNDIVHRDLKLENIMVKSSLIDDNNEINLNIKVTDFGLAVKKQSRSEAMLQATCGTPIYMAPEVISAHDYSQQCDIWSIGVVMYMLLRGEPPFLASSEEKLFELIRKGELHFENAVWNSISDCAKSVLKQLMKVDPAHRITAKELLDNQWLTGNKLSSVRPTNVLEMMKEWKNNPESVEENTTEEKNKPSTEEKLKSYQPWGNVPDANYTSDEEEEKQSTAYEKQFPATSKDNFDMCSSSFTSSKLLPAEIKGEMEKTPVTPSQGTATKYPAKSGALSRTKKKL

**Q.** For `C=CC(=O)Nc1cccc(C(=O)Nc2ccc(Nc3cc(-c4[nH]c(SC)nc4C)ccn3)cc2)c1`, which % of control ([1]; at 1 µM) is on record?
**A.** The % of control was 85%.

**Q.** And the % of control ([1]; at 5 µM)?
**A.** The % of control was 54%.

**Q.** With `O=C(NOC[C@H](O)CO)c1ccc(F)c(F)c1Nc1ccc(I)cc1F` as the molecule, how does the % of control [2] read?
**A.** The % of control was 91%.

**Q.** Which results are given for `Cc1cc([C@@H](C)Nc2ccccc2C(=O)O)c2nc(N3CCOCC3)cc(=O)n2c1` [AZD-6482]?
**A.** % of control [3]: 100%; % of control [4]: 87%

**Q.** For `Cn1cc(-n2cnc3c(NCc4nc5cc(Cl)c(Cl)cc5[nH]4)nc(N4CCOCC4)nc32)cn1`, which % of control [5] is on record?
**A.** The % of control was -13.3%.

**Q.** Which % of control [6] does the source give for `COc1cc(Nc2nc(C)cc(-c3cnn4nc(OC)ccc34)n2)cc(C(F)(F)F)c1` here?
**A.** Its % of control is 89%.

**Q.** With `Cc1cc(F)c(C(=O)Nc2cccc(-c3nncn3C(C)C)n2)cc1-n1cnc(C2CC2)c1` as the molecule, how does the % of control [7] read?
**A.** Its % of control is 79%.

**Q.** What does the source list for `C=CC(=O)Nc1cc(-n2c(=O)ccc3cnc4ccc(-c5ccc(NS(C)(=O)=O)cc5)cc4c32)ccc1C`?
**A.** % of control ([8]; at 1 µM): 100%; % of control ([8]; at 10 µM): 83%

**Q.** With `O[C@H]1CC[C@H](Nc2ncc3nc(Nc4c(F)cc(F)cc4F)n([C@H]4CCOC4)c3n2)CC1` as the molecule, how does the % of control [9] read?
**A.** The % of control was 100%.

**Q.** Which % of inhibition [10] does the source give for `Cc1cnc(Nc2ccc(F)cc2Cl)nc1-c1c[nH]c(C(=O)N[C@H](CO)c2cccc(Cl)c2)c1` here?
**A.** The % of inhibition was 8%.

**Q.** Which % activity [11] does the source give for `CNCCN1CCC(c2cc(CN(C)C(=O)c3cccc(Oc4ccccc4)c3)ccn2)CC1` here?
**A.** The % activity was greater than 90%.

**Q.** What does the source list for `N#Cc1cccc(-c2c[nH]c3ncnc(N4CCOCC4)c23)c1`?
**A.** % of control [12]: 80%; % of control [13]: 60%
